This note sets out measurements from patent US20260159826A1, “METHOD OF MODIFYING CELLS” (ROYAL MELBOURNE INSTITUTE OF TECHNOLOGY, priority 2022, published 2026).

The structures appear in SMILES notation.

The test system of assay [1] is HUVEC monolayers. Nature of the assay: VE-cadherin remodelling, CAB formation, linearity index and AJ length in SRBW mechanostimulated cells with pathway inhibitors. It is filed as cell-based, human. The following applies: for Linearity index / AJ length (adhesion site length) / CAB formation: SRBW 8 mins at 1.5 W, GGTI-298 15 μM, NSC23766 10 μM; for Linearity index / AJ length (adhesion site length): 30 mins post exposure; for Linearity index: FIG. 6(b); for AJ length (adhesion site length): FIG. 6(c).

Assay [2] deals with THP-1 cells. Put plainly: Wash assay (adherence assay) of SRBW stimulated monocytes pretreated with inhibitors/chelators. Format: cell-based. The conditions noted are these: SRBW Treatment 4, 36 hours post exposure, BAPTA-AM 20 μM, Thapsigargin 300 nM, TPEN 1 mM, GGTI-298 15 μM, HJC0197 25 μM, FIG. 18, 19. How it is done: Cell culture and Mechanostimulation: THP-1 cells were obtained from CellBank (Children Medical Research institute, NSW) and grown in suspension in RPMI+Glutamax supplemented with 10% (v/v) heat-inactivated FBS with 1% penicillin-streptomycin in a humidified 37° C., 5% CO2 incubator. Low passage (passage 15 or less) cells were seeded at cell density ranging from 0.5×10^5-0.5×10^6 per cm^2. The cells were then stimulated with SRBW at a frequency of 10 Mhz and at the indicated input power and duration. The cells were stimulated and processed at different post-exposure incubation times (24 h, 36 h, 48 h, 72 h, Day 5, Day 7, Day 9).
Wash Assay: Control (untreated) and treated cells were initially characterised by wash-assay or adherence assay. Undifferentiated THP1 cells were non-adherent cells. Accordingly, cells were initially characterised by determining the percentage of adherent cells. The spent media from control and treated wells were carefully collected into labelled centrifuge tubes. The wells were washed three times with media. After each wash, the wash media was collected into corresponding centrifuge tubes. The tubes were then centrifuged at 250×g for 5 minutes. The supernatant was carefully removed, and the pellet was homogeneously mixed with 1×PBS. The cells collected from spent and wash media were counted trypan blue exclusion assay using a hemocytometer. The percentage of adherent cells was calculated by (number of cells from control wells—number of cells from treated wells/number of cells from control wells)×100. The viability was also determined using the same. The change in the cellular morphology was also recorded using Nikon.

The test system of assay [3] is HUVEC monolayers. Nature of the assay: Intracellular cAMP (cyclic AMP XP assay) in SRBW mechanostimulated cells with Ca2+ inhibitors and chelators. The following applies: for cAMP release: SRBW pretreatment in the presence of extracellular calcium, then sequential treatment, FIG. 2(e-iv), 2(e-v); for cAMP levels under SRBW mechanostimulation: pretreatment with BAPTA-AM and TPEN together, FIG. 2(e-ii). It is filed as cell-based, human. As for the experimental part: (§1) Endothelial cells were cultured in Endothelial Cell Growth Medium-2 (EGM™2) BulletKit™ in a humidified incubator maintained at 37° C. and 5% CO2. The cells were grown in a standard T25 flask until they reached 80-90% confluency, following which they were detached using 0.05% trypsin-EDTA, reseeded in the culture plates at a density of 5000 cells/cm2 and incubated until they reached 90-95% confluency. The confluent monolayer is then exposed to the SRBW irradiation at the prescribed input power and duration. The cells were immediately processed for analysis upon removal of the acoustic field at various post-exposure incubation timepoints.
cAMP concentrations were measured through a cyclic AMP XP™ assay. Briefly, the EC monolayers were washed in Tyrode's buffer (137mMsodium chloride, 12mMsodium bi-carbonate, 5.5 mM glucose, 2 mM potassium chloride, 1mMmagnesium chloride and 0.3 mM disodium hydrogen phosphate) at pH 7.4 supplemented with […] IBMX—a phosphodiesterase inhibitor, to prevent the hydrolysis of cAMP. The cells were then exposed to the SRBW followed by incubation at different time points, after which the cells were lysed in 100 μl of lysis buffer that was supplied with the kit. 25 μl of the cell lysate and HRP-linked cAMP solution was subsequently transferred into the cAMP assay microtiter plates provided and incubated for 3 hrs at room temperature. Following incubation, the plate was washed four times and the liquid discarded. 100 μl of the supplied 3,3′,5,5″-tetramethylbenzidine (TMB) was then added and the solution incubated in the dark for 15 mins. The reaction was ceased by adding 100 μl of the provided STOP solution and its absorbance measured at 450 nm using a spectrophotometric plate reader (CLARIOstar, BMG LabTech, Mornington, VIC, Australia). The average of three measurements per treatment group was taken for cells from each individual culture, from which the cAMP concentrations can be calculated using a standard curve.

Assay [4] concerns endothelial cells. Put plainly: Stress fibre (SF) formation after SRBW exposure under ROCK inhibition. Format: cell-based, human. The following applies: initial sonochallenge phase, early times (<0.3 hrs) after SRBW; data not shown.
Assay [5] relates to HUVEC monolayers. It is filed as cell-based, human. The following applies: SRBW 8 mins at 1.5 W; in the presence of piezo channel inhibitor; FIG. 4(b). As for the experimental part:
as §1
Free cytosolic calcium levels were determined using the fluorescent calcium indicator Fura-2AM. In brief, the EC monolayers were incubated in […] Fura-2AM in Opti-MEM™ reduced serum medium supplemented with 2% (vol/vol) heat-inactivated FBS at 37° C. in the dark. […] The fluorescence emission intensity at 510 nm in individual wells at excitation wavelengths of 340 and 380 nm were measured using a spectrophotometric plate reader (CLARIOstar® BMG LabTech, Mornington, VIC, Australia). The ratio of Fura-2 AM fluorescence emission in response to 340 nm and 380 nm excitation (340/380) was calculated and expressed in terms of the fold change with respect to that of the respective control (unexcited) cells. […]

Consider `CCN(CC)CCCC(C)Nc1nc(C)cc(Nc2ccc3nc(C)cc(N)c3c2)n1.Cl.Cl.Cl` (racemic) [NSC23766, N6-[2-(4-diethylamino-1-methyl-butylamino)-6-methyl-pyrimidin-4-yl]-2-methyl-quinoline-4,6-diamine trihydrochloride], for which, in assay [1], the Linearity index result was “departure from linearity” and the “AJ length (adhesion site length)” value is given as “increased adhesion site length”. Moreover, in assay [1] (data not shown), the CAB formation entry is reported as “only limited CAB formation”.

In the case of `CC(=O)OCOC(=O)CN(CC(=O)OCOC(C)=O)c1ccccc1OCCOc1ccccc1N(CC(=O)OCOC(C)=O)CC(=O)OCOC(C)=O` [BAPTA-AM, 1,2-bis(2-aminophenoxy)ethane-N,N,N′,N′-tetraacetic acid tetrakis(acetoxymethyl ester)], the “number of adherent cells” value in assay [2] is “reduced significantly”. Also, in assay [3], the cAMP release result is on record as “not suppressed” and the “cAMP levels under SRBW mechanostimulation” value is “increased under the SRBW mechanostimulation only when extracellular calcium is present”.

As to `COC(=O)[C@H](CC(C)C)NC(=O)c1ccc(NC[C@@H](N)CS)cc1-c1cccc2ccccc12.O.O=C(O)C(F)(F)F` [GGTI-298, N-[[4-(2-(R)-amino-3-mercaptopropyl)amino]-2-naphthylbenzoyl]leucine methyl ester trifluoroacetate salt hydrate], in assay [1], the Linearity index entry is given as “departure from linearity” and the “AJ length (adhesion site length)” value is recorded as “increased adhesion site length”. Besides, the CAB formation entry in assay [1] (data not shown) is on record as “only limited CAB formation”. For the same compound, the “number of adherent cells” value in assay [2] is on record as “significantly reduced”.

Turning to `Cc1ccc(C)c(CSc2nc(C3CCCC3)c(C#N)c(=O)[nH]2)c1` [HJC0197, 4-cyclopentyl-2-[[(2,5-dimethylphenyl)methyl]thio]-1,6-dihydro-6-oxo-5-pyrimidinecarbonitrile], the “number of adherent cells” value in assay [2] is given as “significantly reduced”.

On to `CCCCCCOC(=O)[C@]1(O)C[C@H]2O[C@]1(C)n1c3ccccc3c3c4c(c5c6ccccc6n2c5c31)C(=O)NC4` [KT5720, (9S,10S,12R)-2,3,9,10,11,12-hexahydro-10-hydroxy-9-methyl-1-oxo-9,12-epoxy-1H-diindolo[1,2,3-fg:3′,2′,1′-kl]pyrrolo[3,4-i][1,6]benzodiazocine-10-carboxylic acid hexyl ester], for which the “VE-cadherin remodelling and CAB formation” value in assay [1] (treated prior to SRBW mechanostimulation, data not shown) is “quelled”.

Turning to `c1ccc(CN(CCN(Cc2ccccn2)Cc2ccccn2)Cc2ccccn2)nc1` [TPEN, N,N,N′,N′-tetrakis(2-pyridinylmethyl)-1,2-ethanediamine], the “number of adherent cells” value in assay [2] was “failed to transform to adherent cells”. Besides, in assay [3], the cAMP release entry was “affected” and the “cAMP levels under SRBW mechanostimulation” value was “increased under the SRBW mechanostimulation only when extracellular calcium is present”.

As for `C[C@@H](N)[C@H]1CC[C@H](C(=O)Nc2ccncc2)CC1.Cl.Cl` [Y27632, (R)-(+)-trans-4-(1-aminoethyl)-N-(4-pyridyl)cyclohexanecarboxamide dihydrochloride], in assay [4], the “stress fibre (SF) formation” value is on record as “SF attenuation”.

As for `C[C@H](CCC(=O)O)C[C@H](C)C[C@H](C)C(=O)/C=C(\O)[C@H](C)C[C@H](C)C/C=C/[C@@H](C)[C@@H](O)[C@@H](C)[C@@H](O)C[C@@H]1CC[C@@](C)([C@H]2CC[C@@](C)([C@@H](C)O)O2)O1` [ionomycin], the cAMP release entry in assay [3] is on record as “affected”. The cAMP levels result in assay [3] (SRBW pretreatment, then chelation/inhibition, then ionomycin added, FIG. 2(e-iii), 40-50 mins) is on record as “cAMP levels were observed to rise”.

As to `N.N.N.N.N.N.N.N.N.N.N.N.N.N.[Cl-].[Cl-].[Cl-].[Cl-].[Cl-].[Cl-].[O-2].[O-2].[Ru+3].[Ru+3].[Ru+4]` [ruthenium red], the “intracellular calcium under the high frequency excitation” value in assay [5] is reported as “abatement of intracellular calcium”.
